The source of these data is PubChem BioAssay AID179 (DTP/NCI, 2004).

This experiment concerns CEM cells HIV-1 protection, formazan growth assay. Description: NCI AIDS Antiviral Assay. To be noted: for IC50: measured here: growth of uninfected CEM cells. The method in brief:
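Five concentrations of each compound were applied to infected and uninfected human CEM cells. Protection from HIV-1 was judged from growth measured with a soluble formazan assay.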

Activity calls are given as the source filed them.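 The calls were made as follows: active = compounds giving half or more protection of infected cells from virus-caused growth loss, again on retest; inactive = the rest.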

One may read the EC50 as the concentration that produces a half-maximal response. Broadly, the IC50 is the midpoint of a concentration-inhibition curve. Low readings indicate inhibition by little substance, high ones a need for much substance.

Consider `Cn1c(=O)c([N+](=O)[O-])c2[nH]ncn2c1=O`, for which the EC50 was more than 200 µM and the IC50 is more than 200 µM.

In the case of `CCOC(CC1(O)C(=O)N(Cc2ccccc2)c2ccccc21)OCC` (configuration not stated), the EC50 was more than 200 µM and the concentration for half-maximal inhibition (IC50) was more than 200 µM.

For the molecule `O=C(O)[C@@H](NS(=O)(=O)c1ccc2ccccc2c1)c1ccccc1`, the outcome was inactive.

Consider `COC(=O)C(C(=O)C(=O)Nc1ccc(N)cc1[N+](=O)[O-])c1nc2ccc(Cl)cc2[nH]c1=O` (configuration not stated), for which the EC50 was more than 40.7 µM and the IC50 amounted to 30.9 µM.

As for `COc1ccc2c3c(c(C(=O)O)oc13)C(CCC(=O)O)CC2` (configuration not stated), the outcome was inactive.

Consider `COc1ccc(Cc2cnc(N)nc2N)cc1OC`, for which the result was inactive.

Regarding `N#Cc1c(N)c(C(=O)Nc2ccccc2)n2c1CCC2`, the EC50 is more than 200 µM and the half-maximal inhibitory concentration (IC50) is more than 200 µM.

For the molecule `FC(F)=C(c1ccc(-c2ccc(Cl)cc2)cc1)C(F)(F)F`, the EC50 was more than 200 µM and the IC50 is 20.9 µM.

Take `Cc1noc(NS(=O)(=O)c2ccc(NC(=O)c3ccc4[nH]c5ccccc5c(=O)c4c3)cc2)c1C`: the EC50 was more than 200 µM and the concentration for half-maximal inhibition (IC50) was determined as 44.7 µM.

For `c1ccc(-c2cc(-c3ccccc3)nc(-c3ccncc3)c2)cc1`, the EC50 was more than 200 µM and the IC50 was more than 200 µM.

On to `Cc1cccc2c(=O)c3ccccc3oc12`, for which the EC50 is more than 170 µM and the IC50 was more than 170 µM.

Consider `C1CN(c2nnc(N3CCC3)nn2)C1`, for which the result was inactive.

On to `Cn1c(=O)[nH]c2c(c1=O)Cc1ccccc1S2(=O)=O`, for which the EC50 was more than 389 µM and the half-inhibitory concentration (IC50) was determined as 148 µM.

For `CC(=O)NC1C(OC(C)C(=O)NC(C)C(=O)NC(CCC(=O)NCCCNc2ccc([N+](=O)[O-])c3[nH]c4ccccc4c(=O)c23)C(N)=O)C(O)C(CO)OC1(C)OCc1ccccc1` (configuration not stated), the EC50 is more than 151 µM and the IC50 stood at 15.8 µM.

Turning to `NC1=C(O)/C(=N/NS(=O)(=O)c2ccccc2)C(c2ccc3c(c2)OCO3)O1` (configuration not stated), the EC50 is more than 3.72 µM and the half-inhibitory concentration (IC50) was more than 3.72 µM.

Regarding `Cc1cccc(NC(=O)Nc2ccccc2F)n1`, the EC50 is more than 200 µM and the half-maximal inhibitory concentration (IC50) was more than 200 µM.

On to `COc1cccc(Nc2nc(N)nc(N)c2N)c1`, for which the EC50 is more than 200 µM and the half-maximal inhibitory concentration (IC50) stood at 26.3 µM.

Regarding `Cn1c(=O)c2c(ncn2CCNC(CO)C(O)c2ccc([N+](=O)[O-])cc2)n(C)c1=O` (configuration not stated), the EC50 was more than 200 µM and the IC50 is more than 200 µM.

On to `CCOC(=O)c1ccc(-c2cccs2)[nH]1`, for which the EC50 was more than 200 µM and the 50% inhibitory concentration (IC50) turned out to be 38.9 µM.

With `NC1CCCCCCC1`, the EC50 was more than 200 µM and the IC50 was more than 200 µM.

On to `O=C(O)c1ccccc1NS(=O)(=O)c1ccc(Cl)cc1`, for which the result was inactive.

Turning to `CC1(C)CC(=O)C2=C(C1)Nc1ccc(Cl)cc1NC2c1cccc([N+](=O)[O-])c1` (configuration not stated), the EC50 was more than 200 µM and the half-maximal inhibitory concentration (IC50) was found to be 102 µM.

Regarding `COC(=O)C(Cc1c[nH]c2ccccc12)NP(=O)(O)OCC1OC(n2cc(F)c(=O)[nH]c2=O)CC1O` (configuration not stated), the EC50 was more than 200 µM and the IC50 was more than 200 µM.

As to `COc1cccc(C(NC2=NCCC=N2)c2cc3c(cc2O)OCO3)c1O` (configuration not stated), the EC50 was more than 200 µM and the half-inhibitory concentration (IC50) was 35.5 µM.

Regarding `CC(C)=CCc1c2c(c3occ(-c4ccc(O)c(O)c4)c(=O)c3c1O)C=CC(C)(C)O2`, the half-maximal effective concentration (EC50) is more than 200 µM and the half-inhibitory concentration (IC50) worked out at 39.8 µM.

Turning to `CC(=O)N1N=C(c2ccc3ccccc3c2O)CC1c1cccs1` (configuration not stated), the EC50 is more than 200 µM and the IC50 stood at 12 µM.

For `Cc1cc(S(=O)(=O)Nc2n[nH]c(-c3ccc(Cl)cn3)n2)c(S)cc1Cl`, the concentration giving a half-maximal response (EC50) was more than 148 µM and the IC50 is 123 µM.

On to `COC(=O)C(CCCCCCCC(C(=O)OC)c1nc2n(c1O)C(=N)N=N2)c1nc2n(c1O)C(=N)N=N2` (configuration not stated), for which the EC50 is more than 7.41 µM and the half-inhibitory concentration (IC50) was more than 7.41 µM.

As for `CC1=C(C)C2(OC1=O)C(O)C(C)[C@]1(O)CCC3C4CC=C5CC=CC(=O)[C@]5(C)C4C[C@@]2(O)[C@@]31C` (some centres not stated), the result was inactive.
